Laboratory results from patent US20260217683A1, “PYRIDAZINONE HETEROCYCLIC COMPOUND MYOSIN II INHIBITOR AND USE THEREOF” (Xizang Haisco Pharmaceutical Co., Ltd., priority 2023, published 2026).
pIC50: −log10 of the molar value. Read-outs that look alike come from different tables or passages of the source.

What was measured:
cardiac myosin SII = molecular target: T1, cardiac myosin SII (Bos taurus, UniProt Q9BE39); test: Inhibition of hydrolysis of ATP by cardiac myosin SII; format: biochemical; settings: 100 μM compound
T1 construct: purchased Cytoskeleton #MYO3-A
T1 sequence (Q9BE39 whole entry): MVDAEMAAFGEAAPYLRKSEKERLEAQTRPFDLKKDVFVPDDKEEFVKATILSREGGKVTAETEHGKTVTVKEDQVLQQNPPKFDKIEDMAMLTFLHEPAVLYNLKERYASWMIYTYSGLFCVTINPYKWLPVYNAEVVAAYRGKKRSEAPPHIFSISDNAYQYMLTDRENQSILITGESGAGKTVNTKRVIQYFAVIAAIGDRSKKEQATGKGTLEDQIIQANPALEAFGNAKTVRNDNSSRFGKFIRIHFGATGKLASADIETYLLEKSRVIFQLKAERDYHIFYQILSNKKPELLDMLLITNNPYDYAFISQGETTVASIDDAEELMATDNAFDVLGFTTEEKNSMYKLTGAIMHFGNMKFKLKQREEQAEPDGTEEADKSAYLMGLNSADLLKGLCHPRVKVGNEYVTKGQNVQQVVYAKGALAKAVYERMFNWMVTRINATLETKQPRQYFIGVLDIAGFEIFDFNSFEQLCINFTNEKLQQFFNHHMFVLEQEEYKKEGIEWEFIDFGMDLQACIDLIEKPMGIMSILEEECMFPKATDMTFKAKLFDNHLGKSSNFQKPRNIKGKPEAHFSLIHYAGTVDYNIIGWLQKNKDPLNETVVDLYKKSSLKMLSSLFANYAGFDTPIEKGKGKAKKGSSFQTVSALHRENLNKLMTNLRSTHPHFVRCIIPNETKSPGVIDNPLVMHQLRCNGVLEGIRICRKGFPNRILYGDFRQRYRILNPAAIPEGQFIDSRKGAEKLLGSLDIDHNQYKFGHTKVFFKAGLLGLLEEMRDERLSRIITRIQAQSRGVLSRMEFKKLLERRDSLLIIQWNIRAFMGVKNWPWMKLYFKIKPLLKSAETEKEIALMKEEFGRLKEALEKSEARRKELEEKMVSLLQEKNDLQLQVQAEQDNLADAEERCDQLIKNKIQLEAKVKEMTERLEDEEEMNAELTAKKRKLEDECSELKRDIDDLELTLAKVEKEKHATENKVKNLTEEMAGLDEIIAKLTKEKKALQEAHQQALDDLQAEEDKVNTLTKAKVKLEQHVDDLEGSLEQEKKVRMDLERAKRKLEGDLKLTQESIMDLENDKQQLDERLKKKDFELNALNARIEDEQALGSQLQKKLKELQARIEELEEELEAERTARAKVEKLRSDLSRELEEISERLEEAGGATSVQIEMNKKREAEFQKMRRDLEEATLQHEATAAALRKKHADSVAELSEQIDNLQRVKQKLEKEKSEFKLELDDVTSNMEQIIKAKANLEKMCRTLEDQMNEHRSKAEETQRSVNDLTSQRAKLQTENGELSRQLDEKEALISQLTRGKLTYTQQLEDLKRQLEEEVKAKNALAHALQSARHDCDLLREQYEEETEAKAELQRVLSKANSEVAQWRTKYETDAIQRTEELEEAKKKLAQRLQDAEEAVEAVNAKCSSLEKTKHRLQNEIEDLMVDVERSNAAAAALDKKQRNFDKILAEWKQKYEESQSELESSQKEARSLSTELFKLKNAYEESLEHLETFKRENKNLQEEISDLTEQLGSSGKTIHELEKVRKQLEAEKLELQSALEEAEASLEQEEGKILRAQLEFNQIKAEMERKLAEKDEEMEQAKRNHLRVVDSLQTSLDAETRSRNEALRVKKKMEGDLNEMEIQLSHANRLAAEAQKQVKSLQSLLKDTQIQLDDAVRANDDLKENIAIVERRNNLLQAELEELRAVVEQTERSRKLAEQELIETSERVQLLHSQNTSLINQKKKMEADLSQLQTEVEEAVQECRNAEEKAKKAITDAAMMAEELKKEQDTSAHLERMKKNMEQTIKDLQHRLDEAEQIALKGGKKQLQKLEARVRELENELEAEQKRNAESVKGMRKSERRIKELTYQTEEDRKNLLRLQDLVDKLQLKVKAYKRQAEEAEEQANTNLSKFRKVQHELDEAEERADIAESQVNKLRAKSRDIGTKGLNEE
T1 sequence (P85100 whole entry partner): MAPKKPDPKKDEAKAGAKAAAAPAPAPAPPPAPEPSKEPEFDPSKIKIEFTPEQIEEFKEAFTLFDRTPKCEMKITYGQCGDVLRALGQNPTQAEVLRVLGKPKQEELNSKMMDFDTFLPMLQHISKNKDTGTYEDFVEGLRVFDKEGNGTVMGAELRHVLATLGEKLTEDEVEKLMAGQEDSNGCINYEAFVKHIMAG
T1 sequence (Q3SZE5 whole entry partner): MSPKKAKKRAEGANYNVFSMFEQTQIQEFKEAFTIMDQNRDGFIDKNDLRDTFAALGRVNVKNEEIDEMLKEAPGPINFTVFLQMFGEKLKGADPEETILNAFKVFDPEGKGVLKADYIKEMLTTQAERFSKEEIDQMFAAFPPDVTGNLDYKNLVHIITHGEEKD
Outline: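 Bovine cardiac myosin with preformed F-actin in 15 mM Tris-HCl pH 7.5, 10 mM KCl, 2 mM MgCl2, 0.1 mM EGTA; compounds at 100 μM final, ATP from 3 mM working solution, 2 h at 37 °C. Released Pi measured colorimetrically at 650 nm against a Pi standard curve; % inhibition vs. DMSO control.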

[1] = Pharmacokinetic experiment in mice; format: in vivo; settings: male, C57, po; mouse plasma, i.g. (10 mg/kg)
Method: (§1) 1. Experimental animals: Male C57 mice, 22-25 g, 6 mice/compound. Purchased from Chengdu Ddossy Experimental Animals Co., Ltd.
(§2) 2. Experimental design: On the day of the experiment, 12 C57 mice were randomly grouped according to their body weight. The animals were fasted with water available for 12 to 14 h one day before the administration and were fed 4 h after the administration.
Before and after the administration, 0.06 mL of blood was taken from the orbit of the animals under isoflurane anesthesia and placed in an EDTAK2 centrifuge tube. The blood was centrifuged at 5000 rpm and 4° C. for 10 min to collect the plasma. The blood collection time points for the intravenous group and intragastric administration group were: 0 m, 5 m, 15 min, 30 min, 1 h, 2 h, 4 h, 7 h and 24 h. Before analysis and detection, all samples were stored at −80° C., and a quantitative analysis of samples was performed using LC-MS/MS.

smooth muscle myosin S1 = molecular target: T2, smooth muscle myosin S1 (Gallus gallus, UniProt P10587); test: Inhibition of hydrolysis of ATP by smooth muscle myosin S1 fragments; format: biochemical; settings: 100 μM compound
T2 construct: purchased Cytoskeleton #CS-MYS05
T2 sequence (P10587 84-789 limits assumed): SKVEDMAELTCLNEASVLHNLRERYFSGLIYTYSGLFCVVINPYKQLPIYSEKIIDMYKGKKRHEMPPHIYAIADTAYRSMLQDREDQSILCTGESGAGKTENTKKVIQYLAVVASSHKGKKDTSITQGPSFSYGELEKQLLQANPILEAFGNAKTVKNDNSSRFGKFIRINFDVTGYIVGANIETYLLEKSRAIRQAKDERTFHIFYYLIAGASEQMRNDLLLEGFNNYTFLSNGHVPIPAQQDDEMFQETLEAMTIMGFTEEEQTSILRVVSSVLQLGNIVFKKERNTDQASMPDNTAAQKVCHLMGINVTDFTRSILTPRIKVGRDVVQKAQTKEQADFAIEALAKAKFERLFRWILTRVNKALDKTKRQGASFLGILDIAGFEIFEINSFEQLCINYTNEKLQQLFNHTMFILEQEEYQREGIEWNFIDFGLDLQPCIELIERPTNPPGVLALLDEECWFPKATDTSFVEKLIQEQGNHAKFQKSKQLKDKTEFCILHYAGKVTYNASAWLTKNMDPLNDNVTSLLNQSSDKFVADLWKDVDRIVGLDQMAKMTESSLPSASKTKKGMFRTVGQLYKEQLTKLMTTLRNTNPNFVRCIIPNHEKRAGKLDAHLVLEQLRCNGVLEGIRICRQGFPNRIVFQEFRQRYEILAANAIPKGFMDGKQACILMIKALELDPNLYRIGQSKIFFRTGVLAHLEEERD
T2 sequence (P02607 whole entry partner, the tested form may be a part): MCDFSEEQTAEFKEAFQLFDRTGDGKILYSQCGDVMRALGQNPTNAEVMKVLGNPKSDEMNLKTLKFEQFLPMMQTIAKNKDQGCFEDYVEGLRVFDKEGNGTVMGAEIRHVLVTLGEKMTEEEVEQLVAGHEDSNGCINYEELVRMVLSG
Outline: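 Smooth muscle myosin S1 fragment (0.7 mg/mL in PM12 buffer with 1 mM DTT) was mixed with compound and F-actin polymer prepared from cardiac actin, then 5 mM ATP working solution started the reaction at 37° C. for 20 min. Released Pi was measured with CytoPhos reagent at 650 nm against a standard curve, and inhibition was calculated relative to positive control wells.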

[2] = test system: rabbit skeletal muscle myosin; test: Inhibition of hydrolysis of ATP by rabbit skeletal muscle myosin; format: biochemical
Outline: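 Actin-activated ATPase: F-actin plus rabbit skeletal myosin II with compound in Tris-HCl pH 7.5/KCl/EGTA/MgCl2, started with ATP (3 mM working stock) and run 60 min at 37 °C. Released Pi measured by CytoPhos absorbance at 650 nm against a phosphate standard curve; IC50 fitted from inhibition relative to uninhibited myosin.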

[3] = Pharmacokinetic experiment in mouse muscle tissue (tibialis anterior / plasma); format: in vivo, C57 mice; settings: male, C57, tibialis anterior muscle / plasma, oral, intragastric 10 mg/kg, read-out: Ratio = Tibialis anterior Conc./Plasma Conc.
Method: as §1
as §2, with “experiment,” for “experiment, 12”, “administration. Administration was performed as per Table 10.1.” for “administration.”

B10-Dmd-KO (Mdx) mice = test: PK/PD detection of mouse model with Dmd (Mdx) gene mutation, plasma CK; format: in vivo; settings: 10 mpk single administration, oral
Excerpt: Experimental objective: Bl0-Dmd-KO (Mdx) mice are DMD function-deficient mice caused by frameshift mutations in the Dmd gene. […] This study has investigated the effects on CK and TNNI2 in the plasma of Mdx mice upon administration of compounds.
Experimental animal: B10-Dmd-KO (C57BL/10ScSnJGpt-Dmdem3Cd4/Gpt), male, 5-7 weeks old, weight 28-30 g, supplier. Gempharmatech Co., Ltd.;
• 1) Running training (D-5): Mdx mice underwent running training in batches. The training parameters were set as three time periods, i.e., the initial speed of 4 m/min for 2 min, then 8 m/min for 8 min, and finally 12 m/min for 30 min, a total of 40 min; • 2) Gripping strength test (D-2): each round was measured three times, and three rounds were performed; • 3) Grouping (DO): the animals were anesthetized by inhalation of isoflurane (concentration: 5%, gas flow rate: 1 L/min), and then a capillary tube was used to collect blood (about 150 μL) via orbital venous sinus into a 0.6 mL centrifuge tube containing EDTA anticoagulant, the plasma wad separated, and the CK value was detected, which was used as the basic value for grouping; • 4) Administration, grasping, and blood collection (D1): The compounds were dissolved in the vehicle 5% DMA+5% HS-15+90% Saline, then orally administered to the mice, and then the grip strength test was conducted (three tests per round for three rounds). […] A capillary tube was used to collect blood (>300 μL) via orbital venous sinus into a 0.6 mL centrifuge tube containing EDTA anticoagulant, and then the animals were euthanized to collect the tibialis anterior muscle (left leg), soleus muscle (both legs) and cardiac muscle, which were weighed and recorded, placed in a homogenization tube and quickly frozen in liquid nitrogen, then stored at −80° C.
Sample processing: After the whole blood anticoagulated with EDTA was centrifuged at 3000 rpm and 4° C. for 10 min, the […] was collected and subpackaged. The separated […] was subjected to a biochemical analyzer (Fully automatic biochemical analyzer Roche C311) to detect the CK value and TNN12 value (Mouse TNNI2 Elisa Kit, ABBEXA, E2207370Y); The […] concentration of the compound and the drug concentration in tibialis anterior muscle, soleus muscle and cardiac muscle were measured by LC/MS instrument.

CYP2C9 = molecular target: T3, CYP2C9 (Homo sapiens, UniProt P11712); test: CYP450 enzyme inhibition, human liver microsomes, CYP2C9; format: in vitro ADME
T3 construct: incubated with human liver microsomes and test compounds of different concentrations; from tissue; host or cells: human liver microsomes
Method: (§3) The purpose of this study was to evaluate the effect of the test compound on the activity of five isoenzymes (CYP1A2, CYP2C9, CYP2C19, CYP2D6 and CYP3A4) of human liver microsomal cytochrome P450 (CYP) by using an in vitro testing system. The specific probe substrates of CYP450 isoenzymes were incubated with human liver microsomes and test compounds of different concentrations, and reduced nicotinamide adenine dinucleotide phosphate (NADPH) was added to initiate the reaction. After the completion of the reaction, the sample was treated and liquid chromatography-tandem mass spectrometry (LC-MS/MS) was used to quantitatively detect metabolites produced by specific substrates, changes in CYP enzyme activity were determined, and IC50 value was calculated to evaluate the inhibitory potential of the test compound on each CYP enzyme subtype.

CYP3A4 = molecular target: T4, CYP3A4 (Homo sapiens, UniProt P08684); test: CYP450 enzyme inhibition, human liver microsomes, CYP3A4; format: in vitro ADME
T4 construct: incubated with human liver microsomes and test compounds of different concentrations; from tissue; host or cells: human liver microsomes
T4 sequence (P08684 whole entry): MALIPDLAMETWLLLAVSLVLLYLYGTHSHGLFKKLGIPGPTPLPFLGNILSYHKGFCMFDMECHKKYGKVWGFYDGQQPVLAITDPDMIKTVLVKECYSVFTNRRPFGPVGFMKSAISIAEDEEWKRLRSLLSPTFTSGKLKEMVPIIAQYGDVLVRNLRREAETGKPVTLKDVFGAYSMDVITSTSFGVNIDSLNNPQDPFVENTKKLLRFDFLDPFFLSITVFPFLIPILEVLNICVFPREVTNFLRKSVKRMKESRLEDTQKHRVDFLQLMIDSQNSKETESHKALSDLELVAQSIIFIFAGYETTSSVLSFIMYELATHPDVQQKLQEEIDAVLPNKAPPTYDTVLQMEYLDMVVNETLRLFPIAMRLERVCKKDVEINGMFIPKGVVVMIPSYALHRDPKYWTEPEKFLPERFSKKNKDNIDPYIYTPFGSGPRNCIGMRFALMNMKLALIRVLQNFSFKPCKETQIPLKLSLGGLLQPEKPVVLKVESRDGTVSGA
Method: as §3

CYP2C19 = molecular target: T5, CYP2C19 (Homo sapiens, UniProt P33261); test: CYP450 enzyme inhibition, human liver microsomes, CYP2C19; format: in vitro ADME
T5 construct: incubated with human liver microsomes and test compounds of different concentrations; from tissue; host or cells: human liver microsomes
Method: as §3

CYP2D6 = molecular target: T6, CYP2D6 (Homo sapiens, UniProt P10635); test: CYP450 enzyme inhibition, human liver microsomes, CYP2D6; format: in vitro ADME
T6 construct: incubated with human liver microsomes and test compounds of different concentrations; from tissue; host or cells: human liver microsomes
Method: as §3

[4] = molecular target: T7, hERG potassium ion channel (Homo sapiens, UniProt Q12809); test: Effect on hERG potassium ion channel (manual patch-clamp, CHO cells); format: cell-based; settings: CHO cells stably expressing hERG, whole cell patch-clamp; read-out: IC50 of the inhibitory effect on hERG potassium channel current
T7 construct: expressed in transfected cells
T7 sequence (Q12809 whole entry): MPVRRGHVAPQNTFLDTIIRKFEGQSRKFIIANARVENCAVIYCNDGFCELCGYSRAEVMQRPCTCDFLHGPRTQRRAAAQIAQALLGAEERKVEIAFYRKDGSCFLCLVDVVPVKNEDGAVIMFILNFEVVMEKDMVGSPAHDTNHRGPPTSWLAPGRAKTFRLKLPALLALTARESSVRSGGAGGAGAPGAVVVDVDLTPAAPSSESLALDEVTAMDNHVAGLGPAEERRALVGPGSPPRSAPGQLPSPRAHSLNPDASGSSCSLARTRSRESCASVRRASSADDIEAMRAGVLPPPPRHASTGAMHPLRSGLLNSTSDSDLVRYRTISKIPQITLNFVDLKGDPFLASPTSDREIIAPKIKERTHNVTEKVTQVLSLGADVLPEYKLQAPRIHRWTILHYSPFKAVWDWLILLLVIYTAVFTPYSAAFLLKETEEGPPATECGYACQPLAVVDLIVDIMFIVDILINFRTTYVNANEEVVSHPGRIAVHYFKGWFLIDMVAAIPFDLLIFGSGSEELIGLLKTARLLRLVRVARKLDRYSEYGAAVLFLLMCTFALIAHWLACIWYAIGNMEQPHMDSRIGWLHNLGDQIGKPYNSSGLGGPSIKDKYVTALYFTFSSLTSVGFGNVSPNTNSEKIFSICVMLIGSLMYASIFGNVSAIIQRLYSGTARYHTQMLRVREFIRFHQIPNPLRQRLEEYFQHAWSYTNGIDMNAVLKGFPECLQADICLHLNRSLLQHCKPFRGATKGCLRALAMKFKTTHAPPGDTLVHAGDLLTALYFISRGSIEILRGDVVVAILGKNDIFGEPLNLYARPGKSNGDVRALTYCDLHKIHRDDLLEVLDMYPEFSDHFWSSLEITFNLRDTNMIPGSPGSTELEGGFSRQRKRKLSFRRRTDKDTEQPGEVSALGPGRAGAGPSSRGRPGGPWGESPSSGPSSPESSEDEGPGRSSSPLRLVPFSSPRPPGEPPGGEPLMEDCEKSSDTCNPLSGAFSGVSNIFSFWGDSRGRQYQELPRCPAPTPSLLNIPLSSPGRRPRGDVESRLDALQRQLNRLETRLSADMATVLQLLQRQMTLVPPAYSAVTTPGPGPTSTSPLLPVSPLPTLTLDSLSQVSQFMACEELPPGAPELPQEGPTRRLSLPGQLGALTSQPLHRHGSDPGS
Excerpt: 1. Experimental platform: electrophysiological manual patch-clamp system
2. Cell line: Chinese hamster ovary (CH—O) cell lines stably expressing hERG potassium ion channel
3. Experimental method: in CHO (Chinese Hamster Ovary) cells stably expressing hERG potassium channel, whole cell patch-clamp technique was used to record hERG potassium channel current at room temperature. The glass microelectrode was made of a glass electrode blank (BF150-86-10, Sutter) by a puller. The tip resistance after filling the liquid in the electrode was about 2-5 MQ. The glass microelectrode can be connected to the patch-clamp amplifier by inserting the glass microelectrode into an amplifier probe. The clamping voltage and data recording were controlled and recorded by the pClamp 10 software through a computer. The sampling frequency was 10 kHz, and the filtering frequency was 2 kHz. After the whole cell records were obtained, the cells were clamped at −80 mV, and the step voltage that induced the hERG potassium current (IhERG) was depolarized from −80 mV to +20 mV for 2 s, then repolarized to −50 mV, and returned to −80 mV after 1 s. This voltage stimulation was given every 10 s, and the administration process was started after the hERG potassium current was confirmed to be stable (at least 1 minute). The compound was administered for at least 1 minute at each test concentration, and at least 2 cells (n≥2) were tested at each concentration.
4. Data processing: Data analysis processing was carried out by using pClamp 10, GraphPad Prism 5 and Excel software. The inhibition degree of hERG potassium current (peak value of hERG tail current induced at −50 mV) at different compound concentrations was calculated by the following formula:
[formula] • where Inhibition % represents the percentage of inhibition of hERG potassium current by the compound, and I and Io represent the amplitude of hERG potassium current after and before the administration, respectively.
Compound IC50 was calculated using GraphPad Prism 5 software by fitting according to the following equation: […]
Among the equation, X represents the Log value of the tested concentration of the test sample, Y represents the inhibition percentage at the corresponding concentration, and Bottom and Top represent the minimum and maximum inhibition percentage, respectively.

CYP1A2 = molecular target: T8, CYP1A2 (Homo sapiens, UniProt P05177); test: CYP450 enzyme inhibition, human liver microsomes, CYP1A2; format: in vitro ADME
T8 construct: incubated with human liver microsomes and test compounds of different concentrations; from tissue; host or cells: human liver microsomes
T8 sequence (P05177 1-516): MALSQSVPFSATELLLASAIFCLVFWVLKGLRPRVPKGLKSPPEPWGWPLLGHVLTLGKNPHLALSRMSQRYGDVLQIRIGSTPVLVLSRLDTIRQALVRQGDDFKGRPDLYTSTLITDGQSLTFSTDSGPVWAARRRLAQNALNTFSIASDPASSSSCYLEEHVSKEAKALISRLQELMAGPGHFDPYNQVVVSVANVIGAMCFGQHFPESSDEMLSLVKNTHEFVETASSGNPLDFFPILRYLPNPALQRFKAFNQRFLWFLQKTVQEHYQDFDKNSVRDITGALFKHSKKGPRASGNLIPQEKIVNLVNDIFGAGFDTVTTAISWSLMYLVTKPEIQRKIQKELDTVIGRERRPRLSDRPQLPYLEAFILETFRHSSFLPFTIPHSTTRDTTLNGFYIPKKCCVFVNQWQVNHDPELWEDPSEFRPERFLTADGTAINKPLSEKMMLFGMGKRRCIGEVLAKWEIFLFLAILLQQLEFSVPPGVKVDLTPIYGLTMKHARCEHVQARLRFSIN
Method: as §3

[5] = inhibition of hydrolysis of ATP, class symbols, read-out: Rabbit skeletal muscle myosin (IC50)
[6] = read-out: IC50 for inhibition of hydrolysis of ATP by rabbit skeletal muscle myosin

Row | inhibition at 100 µM (cardiac myosin SII) | AUC(0-t) [1] | Cmax [1] | inhibition at 100 µM (smooth muscle myosin S1) | pIC50 [2, 5] | pIC50 [2, 6] | Kp at 6 h [3] | Kp at 24 h [3] | half-life [1] | SMILES | pIC50 [4] | also measured
1 | 13% | 6180 ng·h/mL | 688 ng/mL | 16% | > 5.60 | 6.10 | – | – | – | O=c1ccc(-c2cnc(OCC(F)(F)F)nc2)nn1Cc1ccc2c(c1)CC1CC21 (single isomer, unassigned) [Compound 162] | – | –
2 | – | – | – | – | > 5.60 | 6.47 | 175 | 316 | – | O=c1ccc(-c2cnc(OCC(F)(F)F)nc2)nn1Cc1ccc2c(c1)CC2 [Compound 56] | – | Inhibition rate of CK values (sampled 24 h after (last) dose) (B10-Dmd-KO (Mdx) mice): 88.4%
3 | – | – | – | 8% | > 5.60 | 6.52 | 133 | 165 | 66.8 h | O=C1CCc2ccc(Cn3nc(-c4cnc(OCC5(F)CC5)nc4)ccc3=O)cc21 [Compound 135] | – | –
4 | – | 2210 ng·h/mL | 267 ng/mL | – | – | – | – | – | 18.9 h | O=c1ccc(-c2cnc(OCC(F)(F)F)nc2)nn1Cc1ccc2[nH]ncc2c1 [Comparative Example 1, reference compound] | 5.60 | IC50 (CYP2C9): 4.44 µM; IC50 (CYP3A4): > 30 µM; IC50 (CYP2C19): 1.85 µM; IC50 (CYP2D6): 8.81 µM; IC50 (CYP1A2): > 30 µM
5 | 10% | – | – | -3% | > 5.60 | – | – | – | – | O=C1CCc2ccc(Cn3nc(-c4cnc(C5CC5)nc4)ccc3=O)cc21 [Compound 157] | < 4.40 | –
6 | 22% | – | – | -2% | > 5.60 | 6.70 | 146 | 178 | 41.9 h | O=C1CCc2ccc(Cn3nc(-c4cnc(OCC5CC5)nc4)ccc3=O)cc21 [Compound 129] | – | –
7 | 4% | – | – | -12% | > 5.60 | – | – | – | – | O=C1CCc2ccc(Cn3nc(-c4cnc(Oc5cncc(F)c5)nc4)ccc3=O)cc21 [Compound 124] | < 4.40 | –
8 | 8% | 8170 ng·h/mL | 1380 ng/mL | 3% | > 5.60 | – | – | – | – | O=c1ccc(-c2cnc(OCC(F)(F)F)nc2)nn1Cc1ccc2c(c1)C1CC1C2 (single isomer, unassigned) [Compound 160] | – | –
9 | 17% | – | – | – | > 5.60 | 6.70 | – | – | – | O=c1ccc(-c2cnc(C3CC3)nc2)nn1Cc1ccc2c(c1)CC2 [Compound 92] | < 4.40 | –
10 | -10% | 8320 ng·h/mL | 1090 ng/mL | -2% | 4.70 to 5.60 | – | – | – | – | Cn1cc(Oc2ncc(-c3ccc(=O)n(Cc4ccc5c(c4)CCC5)n3)cn2)cn1 [Compound 128] | – | –
